This passage reports Concentration and MIC results from ChEMBL document CHEMBL1151601, “Probing the binding site of the penicillin side-chain based on the tipper-strominger hypothesis” (1993).

The term MIC denotes the least concentration at which growth counts as inhibited. A low value points to a more susceptible organism.

Molecules are shown by their SMILES. Converted amounts (≈) assume the structure as drawn.

For experiment [1], the system named is Escherichia coli. In words: Concentration required for 90 percent inhibition of [14C]- pen-G binding to Escherichia coli DCO PBP1b 90 KDa.
Experiment [2] relates to Staphylococcus aureus. Put plainly: Tested for minimum inhibitory concentration against Staphylococcus aureus ATCC 25293. The experiment is classed as functional.
In experiment [3] the test system is Escherichia coli. Put plainly: Tested for minimum inhibitory concentration against Escherichia coli DC2. It is filed as functional.
Experiment [4] deals with Escherichia coli. Put plainly: Concentration required for 90 percent inhibition of [14C]- pen-G binding to Escherichia coli DCO PBP2 66 KDa.
The test system of experiment [5] is Escherichia coli. Put plainly: Concentration required for 90 percent inhibition of [14C]- pen-G binding to Escherichia coli DCO PBP5/6 40 KDa.
Experiment [6] deals with Staphylococcus aureus. Put plainly: Concentration required for 90 percent inhibition of [14C]- pen-G binding to Staphylococcus aureus ATCC 25293 PBP3 75 KDa.
Experiment [7] has as its system Staphylococcus aureus. In words: Concentration required for 90 percent inhibition of [14C]- pen-G binding to Staphylococcus aureus ATCC 25293 PBP4 41 KDa.
The test system of experiment [8] is Staphylococcus aureus. In words: Concentration required for 90 percent inhibition of [14C]- pen-G binding to Staphylococcus aureus ATCC 25293 PBP1 87 KDa.
The test system of experiment [9] is Escherichia coli. Put plainly: Concentration required for 90 percent inhibition of [14C]- pen-G binding to Escherichia coli DCO PBP4 49 KDa.
Experiment [10] deals with Staphylococcus aureus. Put plainly: Concentration required for 90 percent inhibition of [14C]- pen-G binding to Staphylococcus aureus ATCC 25293 PBP2 80 KDa.
The test system of experiment [11] is Escherichia coli. In words: Concentration required for 90 percent inhibition of [14C]- pen-G binding to Escherichia coli DCO PBP3 60 KDa.
For experiment [12], the system named is Escherichia coli. Put plainly: Concentration required for 90 percent inhibition of [14C]- pen-G binding to Escherichia coli DCO PBP1a 90 KDa.
Experiment [13] deals with Escherichia coli. In words: Tested for minimum inhibitory concentration against Escherichia coli DCO. It is filed as functional.
Experiment [14] relates to Escherichia coli. Put plainly: Concentration required for 90 percent inhibition of [14C]- pen-G binding to Escherichia coli Penicillin-binding protein (DCO PBP3 60 KDa).
Experiment [15] has as its system Escherichia coli. In words: Concentration required for 90 percent inhibition of [14C]- pen-G binding to Escherichia coli Penicillin-binding protein (DCO PBP2 66 KDa).
Experiment [16] deals with Escherichia coli. Put plainly: Concentration required for 90 percent inhibition of [14C]- pen-G binding to Escherichia coli Penicillin-binding protein (DCO PBP1a 90 KDa).
Experiment [17] relates to Staphylococcus aureus. Put plainly: Concentration required for 90 percent inhibition of [14C]- pen-G binding to Staphylococcus aureus Penicillin-binding protein (ATCC 25293 PBP2 80 KDa).
Experiment [18] relates to Staphylococcus aureus. In words: Concentration required for 90 percent inhibition of [14C]- pen-G binding to Staphylococcus aureus Penicillin-binding protein (ATCC 25293 PBP1 87 KDa).
For experiment [19], the system named is Escherichia coli. In words: Concentration required for 90 percent inhibition of [14C]- pen-G binding to Escherichia coli Penicillin-binding protein (DCO PBP4 49 KDa).
Experiment [20] deals with Escherichia coli. In words: Concentration required for 90 percent inhibition of [14C]- pen-G binding to Escherichia coli Penicillin-binding protein (DCO PBP1b 90 KDa).
Experiment [21] has as its system Escherichia coli. In words: Concentration required for 90 percent inhibition of [14C]- pen-G binding to Escherichia coli Penicillin-binding protein (DCO PBP5/6 40 KDa).

For the compound `CC1(C)S[C@@H]2[C@H](NC(=O)[C@H](N)c3ccccc3)C(=O)N2[C@H]1C(=O)O` [AMPICILLIN], the Concentration in the experiment on Escherichia coli [1] is 10 µg/mL; in the experiment on Escherichia coli [4] it was 0.5 µg/mL; in the experiment on Escherichia coli [5], 100 µg/mL; with Staphylococcus aureus [6], 0.1 µg/mL; in the experiment on Staphylococcus aureus [7] it was over 100 µg/mL; in the experiment on Staphylococcus aureus [8], 0.1 µg/mL. In addition, the Concentration in the experiment with Escherichia coli [9] came out at 0.1 µg/mL; in the experiment on Staphylococcus aureus [10], 2 µg/mL; in the experiment on Escherichia coli [11], 2 µg/mL; in the experiment on Escherichia coli [12] it was 2 µg/mL. Further, the figures for the MIC in the experiment on Staphylococcus aureus [2] and with Escherichia coli [3] were 1.6 µg/mL (≈ 4.58 µM) and 0.4 µg/mL (≈ 1.14 µM), respectively.
Take `CC(=O)NCCCC[C@@H](C(=O)N[C@@H]1C(=O)N2[C@@H]1SC(C)(C)[C@@H]2C(=O)O)c1ccccc1`: the Concentration in the experiment with Escherichia coli [1] is over 100 µg/mL; in the experiment on Escherichia coli [4], over 100 µg/mL; in the experiment with Escherichia coli [5], over 100 µg/mL; in the experiment on Staphylococcus aureus [6], over 100 µg/mL; in the experiment on Staphylococcus aureus [8] it was 100 µg/mL; in the experiment on Escherichia coli [9], 100 µg/mL. The figures for the Concentration in the experiment on Staphylococcus aureus [10], with Escherichia coli [11] and in the experiment on Escherichia coli [12] were over 100 µg/mL, 100 µg/mL and over 100 µg/mL, respectively. Also, the figures for the MIC in the experiment with Staphylococcus aureus [2], against Escherichia coli [3] and against Escherichia coli [13] were over 20 µg/mL, over 20 µg/mL and over 100 µg/mL, respectively.
On to `CC1(C)S[C@@H]2[C@H](NC(=O)[C@H](CCCCN)c3ccccc3)C(=O)N2[C@H]1C(=O)O`, for which the Concentration in the experiment with Escherichia coli [1] was 100 µg/mL; with Escherichia coli [4], 30 µg/mL; in the experiment with Escherichia coli [5], over 100 µg/mL; with Staphylococcus aureus [6], over 100 µg/mL; with Staphylococcus aureus [8], 100 µg/mL; in the experiment on Escherichia coli [9], 10 µg/mL. In addition, the Concentration in the experiment on Staphylococcus aureus [10] amounted to 100 µg/mL; in the experiment with Escherichia coli [11] it was 10 µg/mL; with Escherichia coli [12] it was 30 µg/mL. The MIC against Staphylococcus aureus [2], in the experiment with Escherichia coli [3] and in the experiment on Escherichia coli [13] was over 100 µg/mL each time.
`CC1(C)S[C@@H]2[C@H](NC(=O)Cc3ccccc3)C(=O)N2[C@H]1C(=O)O` [PENICILLIN G]: the Concentration in the experiment with Escherichia coli [1] was 10 µg/mL; in the experiment on Escherichia coli [4], 10 µg/mL; with Escherichia coli [5], over 100 µg/mL; with Staphylococcus aureus [6], 0.1 µg/mL; in the experiment with Staphylococcus aureus [7], 10 µg/mL; with Staphylococcus aureus [8], 0.1 µg/mL. For the same compound, the Concentration in the experiment with Escherichia coli [9] is 2 µg/mL; with Staphylococcus aureus [10], 0.1 µg/mL; in the experiment on Escherichia coli [11], 2 µg/mL; in the experiment on Escherichia coli [12], over 100 µg/mL. For the same compound, the minimal inhibitory concentration (MIC) is under 0.05 µg/mL with Staphylococcus aureus [2], 12 µg/mL (≈ 35.9 µM) against Escherichia coli [3] and 50 µg/mL (≈ 150 µM) in the experiment on Escherichia coli [13].
Compound `CC1(C)SC2C(NC(=O)Cc3ccccc3)C(=O)N2[C@H]1C(=O)O` (stereo partly drawn) registered a minimum inhibitory concentration (MIC) in the experiment on Staphylococcus aureus [2] of over 20 µg/mL. In addition, the Concentration in the experiment on Escherichia coli [14] is 100 µg/mL; with Escherichia coli [15] it was over 100 µg/mL; in the experiment with Staphylococcus aureus [7], over 100 µg/mL; with Escherichia coli [16], over 100 µg/mL; in the experiment with Staphylococcus aureus [17], over 100 µg/mL; with Staphylococcus aureus [18], 2 µg/mL. Also, the figures for the Concentration in the experiment with Escherichia coli [19], in the experiment on Escherichia coli [20] and in the experiment on Escherichia coli [21] were 100 µg/mL, over 100 µg/mL and over 100 µg/mL, respectively.
For the compound `CC(=O)NCCCC[C@H](C(=O)N[C@@H]1C(=O)N2[C@@H]1SC(C)(C)[C@@H]2C(=O)O)c1ccccc1`, the Concentration is 100 µg/mL in the experiment on Escherichia coli [1]; 30 µg/mL in the experiment on Escherichia coli [4]; over 100 µg/mL with Escherichia coli [5]; over 100 µg/mL in the experiment on Staphylococcus aureus [6]; 30 µg/mL in the experiment with Staphylococcus aureus [8]; 30 µg/mL in the experiment with Escherichia coli [9]. The Concentration in the experiment on Staphylococcus aureus [10] was 100 µg/mL; in the experiment on Escherichia coli [11], 30 µg/mL; in the experiment on Escherichia coli [12], 30 µg/mL. Moreover, the minimum inhibitory concentration (MIC) is 20 µg/mL (≈ 44.7 µM) with Staphylococcus aureus [2], over 100 µg/mL against Escherichia coli [3] and over 100 µg/mL with Escherichia coli [13].
Regarding `CC1(C)S[C@@H]2[C@H](NC(=O)[C@@H](CCCCN)c3ccccc3)C(=O)N2[C@H]1C(=O)O`, the Concentration is 100 µg/mL in the experiment on Escherichia coli [1]; 30 µg/mL with Escherichia coli [4]; over 100 µg/mL with Escherichia coli [5]; over 100 µg/mL in the experiment on Staphylococcus aureus [6]; 30 µg/mL in the experiment on Staphylococcus aureus [8]; 30 µg/mL in the experiment with Escherichia coli [9]. The Concentration in the experiment on Staphylococcus aureus [10] came out at 30 µg/mL; with Escherichia coli [11], 100 µg/mL; in the experiment with Escherichia coli [12], 10 µg/mL. Besides, the MIC against Staphylococcus aureus [2] was found to be 5 µg/mL (≈ 12.3 µM); in the experiment with Escherichia coli [3], 5 µg/mL (≈ 12.3 µM); in the experiment on Escherichia coli [13], 100 µg/mL (≈ 247 µM).
